Test results published in ChEMBL document CHEMBL2074261, “Transcellular transport of organic anions across a double-transfected Madin-Darby canine kidney II cell monolayer expressing both human organic anion-transporting polypeptide (OATP2/SLC21A6) and Multidrug resistance-associated protein 2 (MRP2/ABCC2)” (J Biol Chem, 2002).

Target: Canalicular multispecific organic anion transporter 1/Solute carrier organic anion transporter family member 1B1 (Homo sapiens, UniProt Q92887+Q9Y6L6)
Experiment: TP_TRANSPORTER: transepithelial transport (basal to apical) in MRP2- and OATP-C-expressing MDCKII cells
Assay type: functional, cell-based
Conditions: dog, mdck-ii

Compound	Activity
C[C@H](CCC(=O)NCCS(=O)(=O)O)C1CC[C@H]2[C@@H]3CC[C@@H]4C[C@H](OS(=O)(=O)O)CC[C@]4(C)[C@H]3CC[C@]12C (some centres not stated)	substrate [+]
CC[C@H](C)C(=O)O[C@H]1C[C@H](O)C=C2C=C[C@H](C)[C@H](CC[C@@H](O)C[C@@H](O)CC(=O)O)[C@H]21 [PRAVASTATIN]	substrate [+]
